Experimental data as given in publication PMC5595947 (British Journal of Clinical Pharmacology, 2017).
Where two headings read alike, the source gives them in different places. Each block holds one compound with its values, some of them ahead of it.

Tests used:
CYP2D6 [1] = target: T1, CYP2D6 (Homo sapiens, UniProt P10635); assay: CYP2D6 inhibition in human liver microsomes; format: in vitro ADME
CYP1A2 [2] = format: in vitro ADME, human
CYP2B6 = format: in vitro ADME, human
CYP2C8 [3] = format: in vitro ADME, human
CYP2C9 [4] = format: in vitro ADME, human
CYP2C19 [5] = format: in vitro ADME, human
CYP3A4/5 = CYP3A4/5 induction in cultured human hepatocytes; format: in vitro ADME
[6] = Safety and adverse events in the phase‐1 study in healthy subjects; format: in vivo, human
CYP2D6 [7] = target: T1, CYP2D6; conditions: up to 100 μmol l^–1 pridopidine
clinical = conditions: human, plasma, oral, 45 mg
[8] = cited from earlier work; for elimination half‐life: metabolite
[9] = not given; remark: listed apart in the source
CYP2D6 [10] = target: T1, CYP2D6; assay: clinical; conditions: plasma, 100 mg
CYP2D6 [11] = target: T1, CYP2D6
CYP3A4 = CYP3A4 (Homo sapiens, UniProt P08684); assay: CYP3A4 inhibition in human liver microsomes; format: in vitro ADME; conditions: HLM; TV‐45065 0.05 to 50 μmol l^–1
Sequence of CYP3A4 (P08684 2-503): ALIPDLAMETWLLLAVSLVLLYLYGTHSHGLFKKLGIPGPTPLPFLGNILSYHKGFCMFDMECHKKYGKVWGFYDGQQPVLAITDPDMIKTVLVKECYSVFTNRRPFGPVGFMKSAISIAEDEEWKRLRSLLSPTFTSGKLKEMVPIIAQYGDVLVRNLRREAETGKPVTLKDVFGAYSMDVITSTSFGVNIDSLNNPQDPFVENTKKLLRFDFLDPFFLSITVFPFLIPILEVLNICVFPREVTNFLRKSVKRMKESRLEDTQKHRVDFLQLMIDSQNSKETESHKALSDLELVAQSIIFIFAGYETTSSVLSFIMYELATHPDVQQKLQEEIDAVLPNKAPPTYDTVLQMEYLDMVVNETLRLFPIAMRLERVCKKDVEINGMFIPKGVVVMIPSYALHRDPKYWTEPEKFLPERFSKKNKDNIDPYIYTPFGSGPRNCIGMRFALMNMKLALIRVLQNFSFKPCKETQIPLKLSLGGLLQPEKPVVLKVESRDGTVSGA

CYP1A2 [12] = target: T2, CYP1A2 (Homo sapiens, UniProt P05177); conditions: HLM; TV‐45065 0.05 to 50 μmol l^–1
T2 sequence (P05177 1-516): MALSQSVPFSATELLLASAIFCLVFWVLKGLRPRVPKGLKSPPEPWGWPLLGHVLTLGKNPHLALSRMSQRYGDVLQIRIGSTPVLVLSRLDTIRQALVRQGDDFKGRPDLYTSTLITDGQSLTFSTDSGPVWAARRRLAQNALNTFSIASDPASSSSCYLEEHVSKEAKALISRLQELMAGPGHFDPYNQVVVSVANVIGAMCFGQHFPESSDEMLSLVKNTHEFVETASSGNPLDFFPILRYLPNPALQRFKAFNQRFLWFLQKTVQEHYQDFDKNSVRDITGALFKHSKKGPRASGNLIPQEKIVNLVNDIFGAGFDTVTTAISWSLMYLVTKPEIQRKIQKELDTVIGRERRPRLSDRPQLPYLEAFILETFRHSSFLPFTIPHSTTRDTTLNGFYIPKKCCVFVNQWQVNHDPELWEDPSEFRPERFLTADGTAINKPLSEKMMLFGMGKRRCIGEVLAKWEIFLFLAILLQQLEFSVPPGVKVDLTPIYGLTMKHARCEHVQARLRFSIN

CYP2C8 [13] = target: T3, CYP2C8 (Homo sapiens, UniProt P10632); conditions: HLM; TV‐45065 0.05 to 50 μmol l^–1; printed CYP2C8/9
T3 sequence (P10632 1-490): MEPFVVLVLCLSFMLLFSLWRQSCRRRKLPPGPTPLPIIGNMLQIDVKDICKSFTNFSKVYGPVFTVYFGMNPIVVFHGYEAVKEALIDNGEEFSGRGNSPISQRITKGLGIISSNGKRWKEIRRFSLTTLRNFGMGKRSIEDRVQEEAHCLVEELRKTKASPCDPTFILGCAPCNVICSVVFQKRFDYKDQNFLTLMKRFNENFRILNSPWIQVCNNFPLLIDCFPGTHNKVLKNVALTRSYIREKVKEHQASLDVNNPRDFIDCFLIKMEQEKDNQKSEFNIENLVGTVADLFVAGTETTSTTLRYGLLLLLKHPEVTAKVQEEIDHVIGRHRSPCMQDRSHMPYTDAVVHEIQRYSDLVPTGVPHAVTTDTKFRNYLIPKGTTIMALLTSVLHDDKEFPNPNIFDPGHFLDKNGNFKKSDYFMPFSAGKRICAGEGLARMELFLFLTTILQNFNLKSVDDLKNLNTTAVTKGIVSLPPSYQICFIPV

CYP2C9 [14] = target: CYP2C9 (Homo sapiens, UniProt P11712); conditions: HLM; TV‐45065 0.05 to 50 μmol l^–1; printed CYP2C8/9
Sequence of CYP2C9 (Homo sapiens, UniProt P11712) (P11712 whole entry): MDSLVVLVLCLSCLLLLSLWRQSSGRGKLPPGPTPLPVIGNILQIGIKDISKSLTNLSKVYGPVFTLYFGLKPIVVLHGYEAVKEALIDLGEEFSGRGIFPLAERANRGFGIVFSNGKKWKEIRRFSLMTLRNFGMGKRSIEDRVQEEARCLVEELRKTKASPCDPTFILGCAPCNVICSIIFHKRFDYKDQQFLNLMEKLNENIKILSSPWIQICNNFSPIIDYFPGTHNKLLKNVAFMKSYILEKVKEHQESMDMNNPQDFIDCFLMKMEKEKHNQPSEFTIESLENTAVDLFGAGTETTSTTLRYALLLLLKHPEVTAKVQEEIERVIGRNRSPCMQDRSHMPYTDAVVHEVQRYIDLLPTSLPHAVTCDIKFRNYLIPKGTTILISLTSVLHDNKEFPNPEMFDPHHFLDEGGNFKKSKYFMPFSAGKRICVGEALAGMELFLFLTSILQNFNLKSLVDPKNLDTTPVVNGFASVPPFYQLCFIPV

CYP2C19 [15] = target: CYP2C19 (Homo sapiens, UniProt P33261); conditions: HLM; TV‐45065 0.05 to 50 μmol l^–1
Sequence of CYP2C19 (Homo sapiens, UniProt P33261) (P33261 whole entry): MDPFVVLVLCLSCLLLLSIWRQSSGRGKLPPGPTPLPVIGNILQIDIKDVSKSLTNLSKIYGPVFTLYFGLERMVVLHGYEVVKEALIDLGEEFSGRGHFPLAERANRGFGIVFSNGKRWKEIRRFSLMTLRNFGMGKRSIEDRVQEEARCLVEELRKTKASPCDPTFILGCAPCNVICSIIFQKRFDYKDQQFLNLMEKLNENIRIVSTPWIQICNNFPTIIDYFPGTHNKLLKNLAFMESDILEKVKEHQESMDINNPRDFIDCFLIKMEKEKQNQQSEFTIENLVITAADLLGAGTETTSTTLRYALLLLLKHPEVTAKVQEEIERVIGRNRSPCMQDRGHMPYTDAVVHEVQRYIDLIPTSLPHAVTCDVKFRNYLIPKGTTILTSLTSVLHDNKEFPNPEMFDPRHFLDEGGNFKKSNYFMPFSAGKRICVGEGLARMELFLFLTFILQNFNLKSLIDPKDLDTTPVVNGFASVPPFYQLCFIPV

[16] = up to 100 μmol l^–1 pridopidine, 3 days, three hepatocyte cultures
[17] = up to 100 μmol l^–1 pridopidine, cultured human hepatocytes
[18] = caused by steady‐state pridopidine (discussion)
[19] = metoprolol coadministered with pridopidine vs alone
[20] = up to 50 μmol l^–1 TV‐45065, three consecutive days

T1 sequence (P10635 whole entry): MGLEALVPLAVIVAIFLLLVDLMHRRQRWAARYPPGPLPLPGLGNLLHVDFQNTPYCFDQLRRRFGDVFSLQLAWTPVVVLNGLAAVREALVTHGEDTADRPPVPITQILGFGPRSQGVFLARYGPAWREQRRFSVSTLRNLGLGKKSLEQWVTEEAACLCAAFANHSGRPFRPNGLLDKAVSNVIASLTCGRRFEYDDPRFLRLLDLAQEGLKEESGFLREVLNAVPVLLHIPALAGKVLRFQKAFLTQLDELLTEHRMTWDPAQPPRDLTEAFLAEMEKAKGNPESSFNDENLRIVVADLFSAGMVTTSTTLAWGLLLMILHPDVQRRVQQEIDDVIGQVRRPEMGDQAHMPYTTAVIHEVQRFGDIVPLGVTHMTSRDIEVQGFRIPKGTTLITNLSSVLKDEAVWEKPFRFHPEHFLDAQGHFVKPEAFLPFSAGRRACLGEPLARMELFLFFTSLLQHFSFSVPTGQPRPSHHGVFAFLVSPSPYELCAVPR

effect of heat inactivation of FMO on CYP2D6 MDI extent (CYP2D6 [1]; HLM heat treated (50°C, 2 min)): did not affect
IC50 (CYP2D6 [1]; IC50, direct inhibition (no preincubation), HLM, preincubation time row 2 h): 39 µM
IC50 (CYP2D6 [1]; IC50, direct inhibition (no preincubation), HLM, preincubation time row 3 h): 39 µM
IC50 (CYP2D6 [1]; IC50, direct inhibition (no preincubation), HLM, preincubation time row 4 h): 39 µM
reversibility of metabolism‐dependent inhibition of CYP2D6 (CYP2D6 [1]; microsomal re‐isolation or addition of potassium ferricyanide): not reversed
change in CYP1A2 mRNA levels (CYP1A2 [2]; [16]): < 2 fold
change in CYP1A2 activity (CYP1A2 [2]; [17]): < 2 fold
change in CYP2B6 mRNA levels (CYP2B6; [16]): < 2 fold
change in CYP2B6 activity (CYP2B6; [17]): < 2 fold
change in CYP2C8 mRNA levels (CYP2C8 [3]; [16]): < 2 fold
change in CYP2C8 activity (CYP2C8 [3]; [17]): < 2 fold
change in CYP2C9 mRNA levels (CYP2C9 [4]; [16]): < 2 fold
change in CYP2C9 activity (CYP2C9 [4]; [17]): < 2 fold
change in CYP2C19 mRNA levels (CYP2C19 [5]; [16]): < 2 fold
change in CYP2C19 activity (CYP2C19 [5]; [17]): < 2 fold
change in CYP3A4 mRNA levels (CYP3A4/5; [16]): < 2 fold
decrease in CYP2D6 activity compared to vehicle control (CYP2D6 [7]; hepatocyte cultures, vehicle 0.1% DMSO): up to 64.2%
change in CYP2D6 mRNA levels (CYP2D6 [7]; 3 days, three hepatocyte cultures): < 2 fold
Cmax (clinical): 525 ng/mL
Cmax,ss, mean (SD) (45 mg BID for 7 days, PM (6–18 h), metoprolol given with PM dose): 727.30 (152.38) ng ml^–1
Cav,ss, mean (SD) (45 mg BID, AM (0–6 h)): 407.29 (90.82)
AUCss, mean (SD) (45 mg BID, AM (0–6 h), AUC0–6): 2443.75 (544.95) ng h ml^–1
Cav,ss, mean (SD) (45 mg BID, PM (6–18 h)): 447.33 (92.19)
AUCss, mean (SD) (45 mg BID, PM (6–18 h), AUC0–18 following the afternoon dose): 8052.03 (1659.34) ng h ml^–1
time of BID dosing after which steady state was reached (45 mg BID, morning trough plasma levels): 7 days
difference in median tmax, fed state in comparison to fasted state ([9]; single 90‐mg dose): 1.5 h
Compound: CCCN1CCC(c2cccc(S(C)(=O)=O)c2)CC1 [pridopidine, 4‐[3‐(methylsulfonyl)phenyl]‐1‐propylpidperidine]
amnestic aphasia, subjects ([6]; following BID administration, two subjects): 9.1%
increase in pulse rate ([6]; pridopidine 45 mg BID): up to 12 beats min^–1
time (tmax) to reach Cmax ([8]; oral administration): roughly 2 h
mean peak concentration in plasma ([8]; single 45‐mg dose): 303 ng ml^–1
pridopidine exposure ([8]; single dose, extensive metabolizers): 3782 ng h ml^–1
pridopidine exposure ([8]; single dose, poor metabolizers): 11 192 ng h ml^–1
mean peak concentration in plasma ([8]; steady state following 14 days of 45 mg BID dosing): 620 ng ml^–1
pridopidine exposure ([8]; steady state, extensive metabolizers): 9338 ng h ml^–1
pridopidine exposure ([8]; steady state, poor metabolizers): 12 080 ng ml^–1

Tmax (CYP2D6 [10]; oral): 0.75 to 2 h
AUC(0-inf) (CYP2D6 [10]; po): 460 ng·h/mL
AUC(0-t) (CYP2D6 [10]; po): 447 ng·h/mL
Cmax (CYP2D6 [10]; po): 84 ng/mL
Tmax (CYP2D6 [10]; po): ~2 h
increase in metoprolol AUC (CYP2D6 [11]; [18]): up to 5 fold
increase in metoprolol peak concentrations (CYP2D6 [11]; [18]): up to 3 fold
t½, mean (SD) (CYP2D6 [11]; metoprolol 100 mg single oral dose alone): 3.69 (0.83) h
increase in mean AUC0–∞ (CYP2D6 [11]; [19]): 5.1 fold
increase in mean Cmax (CYP2D6 [11]; [19]): 3.5 fold
range of tmax (CYP2D6 [11]; metoprolol during coadministration with pridopidine): 1 to 4 h
Compound: COCCc1ccc(OCC(O)CNC(C)C)cc1 (stereo not shown) [metoprolol]

direct inhibition of CYP2D6 (CYP2D6 [1]; HLM, TV‐45065 0.05 to 50 μmol l^–1): did not show any direct inhibition
IC50 (CYP2D6 [1]; read-out: IC50, time‐/metabolism‐dependent inhibition of CYP2D6, HLM, TV‐45065 0.05 to 50 μmol l^–1): > 50 µM
direct inhibition of CYP3A4 (CYP3A4): did not show any direct inhibition
CYP1A2 induction, effectiveness relative to positive control CYP inducer (CYP1A2 [2]; [20]): ≤ 20%
increase in CYP1A2 activity or mRNA expression (on average) (CYP1A2 [2]; [20]): ≤ 2.0 fold
CYP2B6 induction, effectiveness relative to positive control CYP inducer (CYP2B6; [20]): ≤ 20%
increase in CYP2B6 activity or mRNA expression (on average) (CYP2B6; [20]): ≤ 2.0 fold
CYP2C8 induction, effectiveness relative to positive control CYP inducer (CYP2C8 [3]; [20]): ≤ 20%
increase in CYP2C8 activity or mRNA expression (on average) (CYP2C8 [3]; [20]): ≤ 2.0 fold
CYP2C9 induction, effectiveness relative to positive control CYP inducer (CYP2C9 [4]; [20]): ≤ 20%
increase in CYP2C9 activity or mRNA expression (on average) (CYP2C9 [4]; [20]): ≤ 2.0 fold
CYP2C19 induction, effectiveness relative to positive control CYP inducer (CYP2C19 [5]; [20]): ≤ 20%
increase in CYP2C19 activity or mRNA expression (on average) (CYP2C19 [5]; [20]): ≤ 2.0 fold
CYP3A4/5 induction, effectiveness relative to positive control CYP inducer (CYP3A4/5; [20]): ≤ 20%
increase in CYP3A4/5 activity or mRNA expression (on average) (CYP3A4/5; [20]): ≤ 2.0 fold
direct inhibition of CYP1A2 (CYP1A2 [12]): did not show any direct inhibition
direct inhibition of CYP2C8 (CYP2C8 [13]): did not show any direct inhibition
direct inhibition of CYP2C9 (CYP2C9 [14]): did not show any direct inhibition
direct inhibition of CYP2C19 (CYP2C19 [15]): did not show any direct inhibition
Cmax and AUC, fed vs fasted states ([9]; metabolite after single 90‐mg pridopidine dose, data not shown): similar
Compound: CS(=O)(=O)c1cccc(C2CCNCC2)c1 [TV‐45065]
elimination half‐life ([8]; repeated administration, extensive metabolizers): 17 h
elimination half‐life ([8]; repeated administration, poor metabolizers): 19 h
elimination half‐life ([8]; single dose administration, extensive metabolizers): approximately 8 h
elimination half‐life ([8]; single dose administration, poor metabolizers): ~32 h
